Measurements taken from ChEMBL document CHEMBL3991601, “The target landscape of clinical kinase drugs” (Science, 2017).
Calls of active or inactive are those of the source. For most assays here, no stated cut-off is given here; in the data, actives have a measured Kd and inactives only a lower limit.

Experiments:
Activin receptor type-1B = biological target: T1, Activin receptor type-1B (Homo sapiens, UniProt P36896)
T1 sequence (P36896 whole entry): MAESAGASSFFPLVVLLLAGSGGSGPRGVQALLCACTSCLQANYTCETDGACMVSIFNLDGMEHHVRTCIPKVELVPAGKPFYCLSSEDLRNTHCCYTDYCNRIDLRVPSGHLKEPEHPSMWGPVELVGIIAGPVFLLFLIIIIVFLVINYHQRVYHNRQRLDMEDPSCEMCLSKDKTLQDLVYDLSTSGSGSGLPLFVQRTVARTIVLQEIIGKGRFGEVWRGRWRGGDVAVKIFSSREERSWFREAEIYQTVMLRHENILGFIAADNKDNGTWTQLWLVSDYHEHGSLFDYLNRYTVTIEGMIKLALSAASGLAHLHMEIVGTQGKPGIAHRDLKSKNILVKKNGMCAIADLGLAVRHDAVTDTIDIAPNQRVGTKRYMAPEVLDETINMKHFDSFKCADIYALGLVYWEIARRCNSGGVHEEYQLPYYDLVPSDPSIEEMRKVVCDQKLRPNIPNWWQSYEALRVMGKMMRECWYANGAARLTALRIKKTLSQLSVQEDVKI

Aurora kinase B = Aurora kinase B (Homo sapiens, UniProt Q96GD4)
Chain of Aurora kinase B (Q96GD4 whole entry): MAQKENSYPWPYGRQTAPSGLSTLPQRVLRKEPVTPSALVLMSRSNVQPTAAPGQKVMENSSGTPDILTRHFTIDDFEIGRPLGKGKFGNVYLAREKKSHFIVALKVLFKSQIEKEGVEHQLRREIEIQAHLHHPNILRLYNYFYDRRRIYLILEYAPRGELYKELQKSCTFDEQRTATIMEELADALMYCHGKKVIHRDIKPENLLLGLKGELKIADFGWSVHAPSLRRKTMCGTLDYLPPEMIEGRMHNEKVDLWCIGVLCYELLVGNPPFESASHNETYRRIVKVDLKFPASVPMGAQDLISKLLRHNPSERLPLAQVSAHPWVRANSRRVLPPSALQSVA

[1] = biological target: Mitogen-activated protein kinase 14 (Homo sapiens, UniProt Q16539)
Chain of Mitogen-activated protein kinase 14 (Q16539 whole entry): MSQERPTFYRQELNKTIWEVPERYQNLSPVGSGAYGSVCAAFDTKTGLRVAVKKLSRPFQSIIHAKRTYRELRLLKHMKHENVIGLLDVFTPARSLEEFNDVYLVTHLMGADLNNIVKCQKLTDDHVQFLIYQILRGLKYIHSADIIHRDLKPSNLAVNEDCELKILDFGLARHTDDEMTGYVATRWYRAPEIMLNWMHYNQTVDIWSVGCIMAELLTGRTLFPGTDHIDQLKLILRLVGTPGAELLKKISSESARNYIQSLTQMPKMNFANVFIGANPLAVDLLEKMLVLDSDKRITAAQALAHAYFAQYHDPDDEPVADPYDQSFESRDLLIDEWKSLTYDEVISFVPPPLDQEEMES

[2] = biological target: Serine/threonine-protein kinase Nek7 (Homo sapiens, UniProt Q8TDX7)
Chain of Serine/threonine-protein kinase Nek7 (Q8TDX7 whole entry): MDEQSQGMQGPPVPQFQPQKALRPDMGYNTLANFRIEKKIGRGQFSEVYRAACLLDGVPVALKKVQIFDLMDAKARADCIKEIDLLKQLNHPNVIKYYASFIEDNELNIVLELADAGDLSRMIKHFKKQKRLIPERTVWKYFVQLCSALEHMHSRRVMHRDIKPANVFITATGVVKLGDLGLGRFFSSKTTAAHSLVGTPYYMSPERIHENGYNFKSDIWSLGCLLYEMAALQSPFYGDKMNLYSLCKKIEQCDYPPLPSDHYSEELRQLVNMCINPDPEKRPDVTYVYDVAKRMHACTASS

[3] = biological target: Protein kinase C beta type (Homo sapiens, UniProt P05771)
Chain of Protein kinase C beta type (P05771 whole entry): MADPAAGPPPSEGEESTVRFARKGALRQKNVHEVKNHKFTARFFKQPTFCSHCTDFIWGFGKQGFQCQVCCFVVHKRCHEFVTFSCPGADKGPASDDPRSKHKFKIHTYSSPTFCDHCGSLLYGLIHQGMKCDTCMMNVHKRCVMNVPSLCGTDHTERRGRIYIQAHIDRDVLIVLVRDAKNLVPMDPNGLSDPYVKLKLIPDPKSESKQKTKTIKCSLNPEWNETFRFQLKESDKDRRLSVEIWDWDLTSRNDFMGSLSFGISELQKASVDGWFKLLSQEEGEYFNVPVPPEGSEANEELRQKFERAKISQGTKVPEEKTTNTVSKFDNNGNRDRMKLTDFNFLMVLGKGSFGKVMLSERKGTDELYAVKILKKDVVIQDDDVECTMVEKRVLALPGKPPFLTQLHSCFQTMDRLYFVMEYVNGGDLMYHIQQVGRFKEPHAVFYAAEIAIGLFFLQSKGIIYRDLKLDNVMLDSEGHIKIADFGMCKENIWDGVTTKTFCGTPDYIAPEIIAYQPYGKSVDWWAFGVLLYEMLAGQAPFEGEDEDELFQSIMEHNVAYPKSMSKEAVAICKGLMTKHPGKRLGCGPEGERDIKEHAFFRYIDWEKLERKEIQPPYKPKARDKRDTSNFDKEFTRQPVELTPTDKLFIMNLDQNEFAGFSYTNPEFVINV

[4] = biological target: Proto-oncogene tyrosine-protein kinase receptor Ret (Homo sapiens, UniProt P07949)
Chain of Proto-oncogene tyrosine-protein kinase receptor Ret (P07949 whole entry): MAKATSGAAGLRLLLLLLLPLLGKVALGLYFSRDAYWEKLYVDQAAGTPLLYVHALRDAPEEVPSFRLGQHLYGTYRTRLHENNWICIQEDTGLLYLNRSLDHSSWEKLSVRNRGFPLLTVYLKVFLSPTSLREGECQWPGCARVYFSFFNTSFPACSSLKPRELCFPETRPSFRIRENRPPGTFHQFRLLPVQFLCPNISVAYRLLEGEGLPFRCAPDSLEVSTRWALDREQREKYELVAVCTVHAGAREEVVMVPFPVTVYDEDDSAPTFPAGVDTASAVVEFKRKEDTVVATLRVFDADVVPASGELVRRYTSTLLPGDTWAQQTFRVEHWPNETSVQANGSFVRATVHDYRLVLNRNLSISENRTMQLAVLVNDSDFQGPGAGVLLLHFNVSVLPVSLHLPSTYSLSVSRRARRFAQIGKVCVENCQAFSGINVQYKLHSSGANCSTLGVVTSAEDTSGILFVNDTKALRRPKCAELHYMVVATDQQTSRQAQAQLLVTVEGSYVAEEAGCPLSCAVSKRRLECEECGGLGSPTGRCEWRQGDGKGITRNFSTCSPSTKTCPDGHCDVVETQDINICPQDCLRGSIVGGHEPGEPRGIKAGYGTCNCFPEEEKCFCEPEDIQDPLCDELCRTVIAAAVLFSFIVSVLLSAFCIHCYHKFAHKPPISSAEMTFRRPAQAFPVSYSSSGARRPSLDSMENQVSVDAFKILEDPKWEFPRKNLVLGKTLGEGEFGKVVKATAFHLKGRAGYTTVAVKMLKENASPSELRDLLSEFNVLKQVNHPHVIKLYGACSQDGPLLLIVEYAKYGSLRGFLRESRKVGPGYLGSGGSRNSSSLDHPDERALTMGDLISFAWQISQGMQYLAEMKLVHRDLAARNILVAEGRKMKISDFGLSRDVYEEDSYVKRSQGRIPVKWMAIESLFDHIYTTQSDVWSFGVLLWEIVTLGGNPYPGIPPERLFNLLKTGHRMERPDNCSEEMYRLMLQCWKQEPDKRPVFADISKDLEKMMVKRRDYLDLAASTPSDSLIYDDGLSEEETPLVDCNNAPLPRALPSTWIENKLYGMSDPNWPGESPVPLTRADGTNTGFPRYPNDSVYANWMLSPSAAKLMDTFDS

[5] = biological target: Dual specificity testis-specific protein kinase 2 (Homo sapiens, UniProt Q96S53)
Chain of Dual specificity testis-specific protein kinase 2 (Q96S53 whole entry): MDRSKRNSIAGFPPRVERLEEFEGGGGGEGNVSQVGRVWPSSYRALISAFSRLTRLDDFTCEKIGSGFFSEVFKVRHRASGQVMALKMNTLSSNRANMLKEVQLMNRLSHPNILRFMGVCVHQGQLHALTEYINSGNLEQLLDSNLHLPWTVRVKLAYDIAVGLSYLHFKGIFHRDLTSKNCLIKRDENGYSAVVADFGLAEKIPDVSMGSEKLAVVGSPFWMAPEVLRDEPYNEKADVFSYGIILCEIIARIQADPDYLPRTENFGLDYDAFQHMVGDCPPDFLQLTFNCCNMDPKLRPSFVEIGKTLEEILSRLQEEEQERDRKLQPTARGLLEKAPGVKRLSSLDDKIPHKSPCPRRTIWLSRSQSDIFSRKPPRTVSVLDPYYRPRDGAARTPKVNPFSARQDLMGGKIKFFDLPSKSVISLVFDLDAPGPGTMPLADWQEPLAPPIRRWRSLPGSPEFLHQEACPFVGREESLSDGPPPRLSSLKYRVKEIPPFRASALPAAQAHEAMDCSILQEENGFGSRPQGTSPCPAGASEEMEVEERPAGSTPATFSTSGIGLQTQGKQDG

[6] = biological target: T2, Isoleucine--tRNA ligase, mitochondrial (Homo sapiens, UniProt Q9NSE4)
T2 sequence (Q9NSE4 whole entry): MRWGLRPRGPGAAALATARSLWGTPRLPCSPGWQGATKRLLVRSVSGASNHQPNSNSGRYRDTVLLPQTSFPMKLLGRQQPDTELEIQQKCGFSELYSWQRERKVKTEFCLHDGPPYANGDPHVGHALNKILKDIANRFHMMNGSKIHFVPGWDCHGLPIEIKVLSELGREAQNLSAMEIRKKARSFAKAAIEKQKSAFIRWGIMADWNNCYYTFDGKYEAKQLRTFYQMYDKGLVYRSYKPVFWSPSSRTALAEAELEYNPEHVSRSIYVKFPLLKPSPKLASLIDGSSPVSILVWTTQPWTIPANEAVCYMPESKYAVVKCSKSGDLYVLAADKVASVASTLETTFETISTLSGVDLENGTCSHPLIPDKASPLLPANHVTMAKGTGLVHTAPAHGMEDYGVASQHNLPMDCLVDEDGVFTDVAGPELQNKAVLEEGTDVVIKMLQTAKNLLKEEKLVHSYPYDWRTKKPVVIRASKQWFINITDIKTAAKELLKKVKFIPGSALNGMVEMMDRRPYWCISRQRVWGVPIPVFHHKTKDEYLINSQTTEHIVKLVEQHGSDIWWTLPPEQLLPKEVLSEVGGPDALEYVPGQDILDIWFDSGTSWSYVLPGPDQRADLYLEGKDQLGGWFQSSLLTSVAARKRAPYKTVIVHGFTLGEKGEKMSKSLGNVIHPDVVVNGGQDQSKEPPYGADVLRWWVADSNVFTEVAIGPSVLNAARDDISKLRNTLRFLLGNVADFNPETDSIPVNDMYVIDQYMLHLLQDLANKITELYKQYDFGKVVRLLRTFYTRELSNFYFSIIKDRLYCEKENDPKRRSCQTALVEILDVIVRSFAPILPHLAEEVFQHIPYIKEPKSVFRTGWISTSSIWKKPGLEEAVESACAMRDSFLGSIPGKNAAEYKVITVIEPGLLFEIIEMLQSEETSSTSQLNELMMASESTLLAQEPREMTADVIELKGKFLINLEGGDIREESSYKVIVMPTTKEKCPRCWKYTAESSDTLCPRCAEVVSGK

[7] = biological target: T3, Long-chain-fatty-acid--CoA ligase 5 (Homo sapiens, UniProt Q9ULC5)
T3 sequence (Q9ULC5 whole entry): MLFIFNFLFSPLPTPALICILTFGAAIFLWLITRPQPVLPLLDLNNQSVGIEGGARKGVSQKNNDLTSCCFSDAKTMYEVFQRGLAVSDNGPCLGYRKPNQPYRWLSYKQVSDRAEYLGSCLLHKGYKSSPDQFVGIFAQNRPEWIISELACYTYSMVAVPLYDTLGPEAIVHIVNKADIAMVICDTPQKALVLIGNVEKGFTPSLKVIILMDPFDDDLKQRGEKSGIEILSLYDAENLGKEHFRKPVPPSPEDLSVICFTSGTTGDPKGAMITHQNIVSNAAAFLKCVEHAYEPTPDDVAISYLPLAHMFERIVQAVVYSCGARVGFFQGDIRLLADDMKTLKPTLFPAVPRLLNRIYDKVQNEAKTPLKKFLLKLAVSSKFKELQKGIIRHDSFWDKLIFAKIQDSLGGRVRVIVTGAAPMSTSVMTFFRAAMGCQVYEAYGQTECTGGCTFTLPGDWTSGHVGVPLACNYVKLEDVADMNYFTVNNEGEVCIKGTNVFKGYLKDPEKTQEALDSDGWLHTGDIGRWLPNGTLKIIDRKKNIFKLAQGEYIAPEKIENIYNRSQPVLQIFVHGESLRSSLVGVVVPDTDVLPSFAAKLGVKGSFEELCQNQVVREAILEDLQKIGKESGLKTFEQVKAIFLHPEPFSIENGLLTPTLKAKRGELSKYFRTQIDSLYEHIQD

| Kd (Activin receptor type-1B) | Kd (Aurora kinase B) | Kd [1] | Kd [2] | Kd [3] | Kd [4] | Kd [5] | Kd [6] | Kd [7] | SMILES |
| --- | --- | --- | --- | --- | --- | --- | --- | --- | --- |
| > 30 µM (inactive) | > 30 µM (inactive) | > 30 µM (inactive) | > 30 µM (inactive) | 4.88 µM (active) | > 30 µM (inactive) | – | – | – | Cn1ncc(Cl)c1-c1cc(C(=O)N[C@H](CN)Cc2cccc(F)c2)sc1Cl [AFURESERTIB] |
| > 30 µM (inactive) | > 30 µM (inactive) | > 30 µM (inactive) | > 30 µM (inactive) | > 30 µM (inactive) | > 30 µM (inactive) | > 30 µM (inactive) | – | – | CNS(=O)(=O)Nc1nccc(Cc2c(C)c3ccc(Oc4ncccn4)cc3oc2=O)c1F [AVUTOMETINIB] |
| > 30 µM (inactive) | > 30 µM (inactive) | > 30 µM (inactive) | > 30 µM (inactive) | > 30 µM (inactive) | > 30 µM (inactive) | > 30 µM (inactive) | – | > 30 µM (inactive) | CO[C@H]1C[C@@H]2CC[C@@H](C)[C@@](O)(O2)C(=O)C(=O)N2CCCC[C@H]2C(=O)O[C@H]([C@H](C)C[C@@H]2CC[C@@H](OCCO)[C@H](OC)C2)CC(=O)[C@H](C)/C=C(\C)[C@@H](O)[C@@H](OC)C(=O)[C@H](C)C[C@H](C)/C=C/C=C/C=C/1C [EVEROLIMUS] |
| > 30 µM (inactive) | > 30 µM (inactive) | > 30 µM (inactive) | – | > 30 µM (inactive) | > 30 µM (inactive) | – | – | > 30 µM (inactive) | C[C@@H](Nc1cc(F)cc(F)c1)c1cc(C(=O)N(C)C)cc2c(=O)cc(N3CCOCC3)oc12 [AZD-8186] |
| > 30 µM (inactive) | > 30 µM (inactive) | > 30 µM (inactive) | > 30 µM (inactive) | > 30 µM (inactive) | > 30 µM (inactive) | – | > 30 µM (inactive) | – | CN1N=C(N)c2cn([C@@H]3O[C@H](COP(=O)(O)O)[C@@H](O)[C@H]3O)c3ncnc1c23 [TRICIRIBINE PHOSPHATE] |
| > 30 µM (inactive) | > 30 µM (inactive) | > 30 µM (inactive) | > 30 µM (inactive) | > 30 µM (inactive) | > 30 µM (inactive) | > 30 µM (inactive) | – | > 30 µM (inactive) | Cn1cc(-c2ccc3nnc(C(F)(F)c4ccc5ncccc5c4)n3n2)cn1 [JNJ-38877605] |
| > 30 µM (inactive) | 0.641 µM (active) | > 30 µM (inactive) | – | 7.24 µM (active) | > 30 µM (inactive) | – | > 30 µM (inactive) | – | C1=C/COCc2cc(ccc2OCCN2CCCC2)Nc2nccc(n2)-c2cccc(c2)COC/1 [PACRITINIB] |
| 1.27 µM (active) | – | > 30 µM (inactive) | > 30 µM (inactive) | > 30 µM (inactive) | – | > 30 µM (inactive) | > 30 µM (inactive) | – | Cc1nc(N)sc1-c1ccnc(Nc2ccc(N3CCOCC3)cc2)n1 [CYC-116] |
| – | – | – | – | > 30 µM (inactive) | – | > 30 µM (inactive) | – | – | CN1CCN(c2ccc3nc(-c4c(N)c5c(F)cccc5[nH]c4=O)[nH]c3c2)CC1 [DOVITINIB] |
| > 30 µM (inactive) | > 30 µM (inactive) | > 30 µM (inactive) | – | > 30 µM (inactive) | > 30 µM (inactive) | – | > 30 µM (inactive) | – | N[C@@H]1CCCN(c2c(/C=C3\SC(=O)NC3=O)cccc2-c2ccccc2)C1 |
| > 30 µM (inactive) | – | – | – | > 30 µM (inactive) | – | > 30 µM (inactive) | > 30 µM (inactive) | > 30 µM (inactive) | Cc1cc(Nc2cc(N3CCN(C)CC3)nc(/C=C/c3ccccc3)n2)n[nH]1 [ENMD-2076] |
| > 30 µM (inactive) | > 30 µM (inactive) | 0.705 µM (active) | > 30 µM (inactive) | > 30 µM (inactive) | – | > 30 µM (inactive) | > 30 µM (inactive) | > 30 µM (inactive) | CNC(=O)c1cc(Oc2ccc(NC(=O)Nc3ccc(Cl)c(C(F)(F)F)c3)c(F)c2)ccn1 [REGORAFENIB] |
| – | – | – | – | > 30 µM (inactive) | – | > 30 µM (inactive) | > 30 µM (inactive) | > 30 µM (inactive) | Nc1nc(N)c2nc(-c3cccc(O)c3)c(-c3cccc(O)c3)nc2n1 [TG100-115] |
| > 30 µM (inactive) | > 30 µM (inactive) | > 30 µM (inactive) | > 30 µM (inactive) | > 30 µM (inactive) | 1.33 µM (active) | – | – | > 30 µM (inactive) | O=C(Nc1ccc(-c2ccnc(Nc3ccc(N4CCOCC4)cc3)n2)cc1)C1CCCN1 (stereo not drawn) [XL-019] |
| > 30 µM (inactive) | 1.67 µM | > 30 µM (inactive) | – | > 30 µM (inactive) | 0.029 µM (active) | – | – | > 30 µM (inactive) | COc1cc(CCc2cc(NC(=O)c3ccc(N4C[C@@H](C)N[C@@H](C)C4)cc3)n[nH]2)cc(OC)c1 [AZD-4547] |
| – | – | – | – | 0.31 µM (active) | – | – | > 30 µM (inactive) | > 30 µM (inactive) | CCn1c(-c2nonc2N)nc2c(C#CC(C)(C)O)ncc(OC[C@H]3CCCNC3)c21 [GSK-690693] |
| > 30 µM (inactive) | > 30 µM (inactive) | > 30 µM (inactive) | > 30 µM (inactive) | > 30 µM (inactive) | > 30 µM (inactive) | > 30 µM (inactive) | – | – | COc1cc(OC)c(/C=C/S(=O)(=O)Cc2ccc(OC)c(NCC(=O)O)c2)c(OC)c1 [RIGOSERTIB] |
| > 30 µM (inactive) | > 30 µM (inactive) | – | – | > 30 µM (inactive) | > 30 µM (inactive) | – | > 30 µM (inactive) | – | CCn1c(=O)c(-c2cc[nH]n2)cc2c(C)nc(N)nc21 [VOXTALISIB] |
| > 30 µM (inactive) | > 30 µM (inactive) | > 30 µM (inactive) | > 30 µM (inactive) | > 30 µM (inactive) | > 30 µM (inactive) | > 30 µM (inactive) | > 30 µM (inactive) | – | CN(C)C(=O)c1cc2cnc(Nc3ccc(N4CCNCC4)cn3)nc2n1C1CCCC1 [RIBOCICLIB] |

| SMILES | Kd (Activin receptor type-1B) | Kd (Aurora kinase B) | Kd [1] | Kd [2] | Kd [3] | Kd [4] | Kd [5] | Kd [6] | Kd [7] |
| --- | --- | --- | --- | --- | --- | --- | --- | --- | --- |
| Cc1cn(-c2cc(NC(=O)c3ccc(C)c(Nc4nccc(-c5cccnc5)n4)c3)cc(C(F)(F)F)c2)cn1 [NILOTINIB] | – | – | – | – | > 30 µM (inactive) | – | > 30 µM (inactive) | > 30 µM (inactive) | – |
| O=C(Nc1cccc(Cl)c1)Nc1ncc(CCNc2ncnc3ccsc23)s1 [SNS-314] | > 30 µM (inactive) | – | – | > 30 µM (inactive) | > 30 µM (inactive) | – | – | > 30 µM (inactive) | > 30 µM (inactive) |
